The text below walks through data of patent publication US9073821B2, “Hydroxamic acid derivative” (priority 2010, dated 2015).

One experiment deals with Pseudomonas aeruginosa LpxC enzyme (Pseudomonas aeruginosa (strain ATCC 15692 / DSM 22644 / CIP 104116 / JCM 14847 / LMG 12228 / 1C / PRS 101 / PAO1), UniProt P47205). Nature of the experiment: biochemical. Type of experiment: biochemical. As to conditions: class symbols A/B/C by IC50; Table 3; read-out: Enzyme inhibitory activity (inhibitory activity on Pseudomonas aeruginosa LpxC enzyme).
For `CCOC1CN(Cc2ccc(C#Cc3ccc(C(=O)N(C)C(C(=O)NC)C(=O)NO)cc3)c(C(F)(F)F)c2)C1` (stereo not drawn) [Compound 574, 2-[{[4-({4-[(3-ethoxyazetidin-1-yl)methyl]-2-(trifluoromethyl)phenyl}ethynyl)phenyl]carbonyl}(methyl)amino]-N-hydroxy-N′-methylpropanediamide], the IC50 is less than 10 nM. Same read-out and setting: the value for `CNC(=O)C(C(=O)NO)N(C)C(=O)c1ccc(C#Cc2cnn(CCOC)c2)cc1` (stereo not drawn) [Compound 518, N-hydroxy-2-{[(4-{[1-(2-methoxyethyl)-1H-pyrazol-4-yl]ethynyl}phenyl)carbonyl](methyl)amino}-N′-methylpropanediamide] was 10 to 100 nM; that for `CNC(=O)C(C(=O)NO)N(C)C(=O)c1ccc(C#Cc2coc(COC)c2)cc1` (stereo not drawn) [Compound 514, N-hydroxy-2-{[(4-{[5-(methoxymethyl)furan-3-yl]ethynyl}phenyl)carbonyl](methyl)amino}-N′-methylpropanediamide] was less than 10 nM. The same measure, in the same setting: the value for `CNC(=O)[C@@](C)(C(=O)NO)N(C)C(=O)c1ccc(C#Cc2cc(C)on2)cc1` [Compound 576, (2S)-N-hydroxy-N′,2-dimethyl-2-[methyl({4-[(5-methyl-1,2-oxazol-3-yl)ethynyl]phenyl}carbonyl)amino]propanediamide] was less than 10 nM; that for `CCOC1CN(Cc2cc(C#Cc3ccc(C(=O)N(C)[C@@](C)(C(=O)NC)C(=O)NO)cc3)co2)C1` [Compound 584, (2S)-2-[{[4-({5-[(3-ethoxyazetidin-1-yl)methyl]furan-3-yl}ethynyl)phenyl]carbonyl}(methyl)amino]-N-hydroxy-N′,2-dimethylpropanediamide] was less than 10 nM. Still for that read-out and setting: the value for `CNC(=O)[C@@](C)(C(=O)NO)N(C)C(=O)c1ccc(C#Cc2coc(C)n2)cc1` [Compound 575, (2S)-N-hydroxy-N′,2-dimethyl-2-[methyl({4-[(2-methyl-1,3-oxazol-4-yl)ethynyl]phenyl}carbonyl)amino]propanediamide] was less than 10 nM. `CNC(=O)C(C(=O)NO)N(C)C(=O)c1ccc(C#Cc2ccc(CN3CC4CC4C3)cc2)cc1` (stereo not drawn) [Compound 515, 2-{[(4-{[4-(3-azabicyclo[3.1.0]hex-3-ylmethyl)phenyl]ethynyl}phenyl)carbonyl](methyl)amino}-N-hydroxy-N′-methylpropanediamide]: the IC50 was less than 10 nM.

The experiment is the same for the next values; noted with them: inhibitory activity on Pseudomonas aeruginosa LpxC enzyme, class symbols A/B/C; read-out: Enzyme inhibitory activity.
As to `CNC(=O)C(C(=O)NO)N(C)C(=O)c1ccc(-c2cccc(NC)c2)cc1` (stereo not drawn) [Compound 278, N-hydroxy-N′-methyl-2-(methyl {[3′-(methylamino)biphenyl-4-yl]carbonyl}amino)propanediamide], the IC50 lay in the range of 10 to 100 nM. Still for that read-out and setting: next, `CC(=O)NCCNC(=O)C(NC(=O)c1ccc(-c2ccc(OCCO)cc2)cc1)C(=O)NO` (stereo not drawn) [Compound 135, N-[2-(acetylamino)ethyl]-N′-hydroxy-2-({[4′-(2-hydroxyethoxy)biphenyl-4-yl]carbonyl}amino)propanediamide]: less than 10 nM; `CNC(=O)C(C(=O)NO)N(C)C(=O)c1ccc(C#Cc2ccc(OCCCN3CCOCC3)cc2)cc1` (stereo not drawn) [Compound 465, N-hydroxy-N′-methyl-2-(methyl {[4-({4-[3-(morpholin-4-yl)propoxy]phenyl}ethynyl)phenyl]carbonyl}amino)propanediamide]: less than 10 nM. Consider `CNC(=O)C(C(=O)NO)N(C)C(=O)c1ccc(-c2ccc(OCCCN(C)Cc3ccccc3)cc2NC)cc1` (stereo not drawn) [Compound 106, 2-[{[4′-{3-[benzyl(methyl)amino]propoxy}-2′-(methylamino)biphenyl-4-yl]carbonyl}(methyl)amino]-N-hydroxy-N′-methylpropanediamide], for which the IC50 is 10 to 100 nM. Same read-out and setting: next, `CNC(=O)C(C(=O)NO)N(C)C(=O)c1ccc(-c2cccc(OC)n2)cc1` (stereo not drawn) [Compound 296, N-hydroxy-2-[{[4-(6-methoxypyridin-2-yl)phenyl]carbonyl}(methyl)amino]-N′-methylpropanediamide]: more than 100 nM; `O=C(NC(C(=O)NO)C(=O)NCCc1ccccn1)c1ccc(-c2ccc(OCCO)cc2)cc1` (stereo not drawn) [Compound 151, N-hydroxy-2-({[4′-(2-hydroxyethoxy)biphenyl-4-yl]carbonyl}amino)-N′-[2-(pyridin-2-yl)ethyl]propanediamide]: less than 10 nM. Same read-out and setting: the value for `CNC(=O)C(C(=O)NO)N(C)C(=O)c1ccc(C#Cc2ccc(CN3CCN(C)CC3)cc2)cc1` (stereo not drawn) [Compound 304, N-hydroxy-N′-methyl-2-(methyl {[4-({4-[(4-methylpiperazin-1-yl)methyl]phenyl}ethynyl)phenyl]carbonyl}amino)propanediamide] was less than 10 nM. In the case of `CNC(=O)C(C(=O)NO)N(C)C(=O)C1CCC(c2ccc(Cl)cc2)CC1` (stereo not drawn) [Compound 273, 2-[{[4-(4-chlorophenyl)cyclohexyl]carbonyl}(methyl)amino]-N-hydroxy-N′-methylpropanediamide], the IC50 is more than 100 nM. Still for that read-out and setting: next, `CNC(=O)C(C(=O)NO)N(C)C(=O)c1ccc(-c2ccc(C)nc2)cc1` (stereo not drawn) [Compound 450, N-hydroxy-N′-methyl-2-(methyl {[4-(6-methylpyridin-3-yl)phenyl]carbonyl}amino)propanediamide]: more than 100 nM.

On to `CNC(=O)C(C(=O)NO)N(C)C(=O)c1ccc(-c2ccccc2F)cc1` (stereo not drawn) [Compound 59, 2-{[(2′-fluorobiphenyl-4-yl)carbonyl](methyl)amino}-N-hydroxy-N′-methylpropanediamide], for which the IC50 is less than 10 nM. On to `CNC(=O)C(C(=O)NO)N(C)C(=O)c1ccc(-c2cncc(OC)c2)cc1` (stereo not drawn) [Compound 447, N-hydroxy-2-[{[4-(5-methoxypyridin-3-yl)phenyl]carbonyl}(methyl)amino]-N′-methylpropanediamide], for which the IC50 is more than 100 nM. The same measure, in the same setting: the value for `CCNC(=O)C(NC(=O)c1ccc(-c2ccc(OCCO)cc2)cc1)C(=O)NO` (stereo not drawn) [Compound 139, N-ethyl-N′-hydroxy-2-({[4′-(2-hydroxyethoxy)biphenyl-4-yl]carbonyl}amino)propanediamide] was 10 to 100 nM; that for `CNC(=O)C(C(=O)NO)N(C)C(=O)c1ccc(-c2ccc(OCC(C)C)cc2)cc1` (stereo not drawn) [Compound 214, N-hydroxy-N′-methyl-2-(methyl {[4′-(2-methylpropoxy)biphenyl-4-yl]carbonyl}amino)propanediamide] was less than 10 nM; that for `CNC(=O)C(C(=O)NO)N(C)C(=O)c1ccc(-c2ccc(CN(C)C)cc2)cc1` (stereo not drawn) [Compound 194, 2-[({4′-[(dimethylamino)methyl]biphenyl-4-yl}carbonyl)(methyl)amino]-N-hydroxy-N′-methylpropanediamide] was more than 100 nM.

Regarding `CNC(=O)C(C(=O)NO)N(C)C(=O)c1ccc(-c2ccc(OC)nc2)cc1` (stereo not drawn) [Compound 449, N-hydroxy-2-[{[4-(6-methoxypyridin-3-yl)phenyl]carbonyl}(methyl)amino]-N′-methylpropanediamide], the IC50 fell in the range of 10 to 100 nM. Still for that read-out and setting: next, `CNC(=O)C(C(=O)NO)N(C)C(=O)c1ccc(-c2ccc(OCCCN(C)CCOC)cc2)cc1` (stereo not drawn) [Compound 64, N-hydroxy-2-{[(4′-{3-[(2-methoxyethyl)(methyl)amino]propoxy}biphenyl-4-yl)carbonyl](methyl)amino}-N′-methylpropanediamide]: 10 to 100 nM. Turning to `O=C(NC(C(=O)NO)C(=O)NCC1CCC1)c1ccc(-c2ccc(OCCO)cc2)cc1` (stereo not drawn) [Compound 128, N-(cyclobutylmethyl)-N′-hydroxy-2-({[4′-(2-hydroxyethoxy)biphenyl-4-yl]carbonyl}amino)propanediamide], the IC50 was less than 10 nM. Regarding `CNC(=O)C(C(=O)NO)N(C)C(=O)c1ccc(C#Cc2ccc(CNCCS(C)(=O)=O)cc2)cc1` (stereo not drawn) [Compound 378, N-hydroxy-N′-methyl-2-{methyl[(4-{[4-({[2-(methylsulfonyl)ethyl]amino}methyl)phenyl]ethynyl}phenyl)carbonyl]amino}propanediamide], the IC50 was less than 10 nM. On the same count and under the same terms, next, `CNC(=O)C(C(=O)NO)N(C)C(=O)c1ccc(-c2ccc(F)cn2)cc1` (stereo not drawn) [Compound 108, 2-{[4-(5-fluoropyridin-2-yl)benzoyl](methyl)amino}-N-hydroxy-N′-methylpropanediamide]: more than 100 nM; `CSCCNC(=O)C(NC(=O)c1ccc(-c2ccc(OCCO)cc2)cc1)C(=O)NO` (stereo not drawn) [Compound 132, N-hydroxy-2-({[4′-(2-hydroxyethoxy)biphenyl-4-yl]carbonyl}amino)-N′-[2-(methylsulfanyl)ethyl]propanediamide]: less than 10 nM; `CNC(=O)C(C(=O)NO)N(C)C(=O)c1ccc(-c2ccc(N3CC(OC)C3)cc2)cc1` (stereo not drawn) [Compound 229, N-hydroxy-2-[{[4′-(3-methoxyazetidin-1-yl)biphenyl-4-yl]carbonyl}(methyl)amino]-N′-methylpropanediamide]: less than 10 nM. For `CCN(C(=O)c1ccc(C#Cc2ccc(CN3CCCOCC3)cc2)cc1)C(C(=O)NC)C(=O)NO` (stereo not drawn) [Compound 336, 2-{ethyl[(4-{[4-(1,4-oxazepan-4-ylmethyl)phenyl]ethynyl}phenyl)carbonyl]amino}-N-hydroxy-N′-methylpropanediamide], the IC50 is less than 10 nM. Same read-out and setting: the value for `CNC(=O)C(C(=O)NO)N(C(=O)c1ccc(-c2ccccc2)cc1)C1CC1` (stereo not drawn) [Compound 127, 2-[(Biphenyl-4-ylcarbonyl)(cyclopropyl)amino]-N-hydroxy-N′-methylpropanediamide] was less than 10 nM; that for `CNC(=O)C(C(=O)NO)N(C)C(=O)c1ccc(-c2ccc(C(C)(C)O)cc2)cc1` (stereo not drawn) [Compound 262, N-hydroxy-2-[{[4′-(2-hydroxypropan-2-yl)biphenyl-4-yl]carbonyl}(methyl)amino]-N′-methylpropanediamide] was 10 to 100 nM; that for `CCCS(=O)(=O)Nc1ccc(-c2ccc(C(=O)N(C)C(C(=O)NC)C(=O)NO)cc2)cc1` (stereo not drawn) [Compound 78, N-hydroxy-N′-methyl-2-[methyl({4′-[(propylsulfonyl)amino]biphenyl-4-yl}carbonyl)amino]propanediamide] was 10 to 100 nM. Still for that read-out and setting: next, `CNC(=O)C(C(=O)NO)N(C)C(=O)c1ccc(Cc2ccccc2)cc1` (stereo not drawn) [Compound 445, 2-{[(4-benzylphenyl)carbonyl](methyl)amino}-N-hydroxy-N′-methylpropanediamide]: more than 100 nM.
